From publication PMC11702208 (RSC Advances, 2025)

How the values were obtained:
HS 578T = assay: NCI cytotoxicity screen; format: cell-based, human; conditions: Homo sapiens, Hs-578T
MCF7 = assay: NCI cytotoxicity screen; format: cell-based, human; conditions: Homo sapiens, MCF7
KM12 = assay: NCI cytotoxicity screen; format: cell-based, human; conditions: Homo sapiens, KM12
MDA-MB-468 = assay: NCI cytotoxicity screen; format: cell-based, human; conditions: Homo sapiens
SF-268 = assay: NCI cytotoxicity screen; format: cell-based, human; conditions: Homo sapiens
TK-10 = assay: NCI cytotoxicity screen; format: cell-based, human; conditions: Homo sapiens
NCI-H226 = assay: NCI cytotoxicity screen; format: cell-based, human; conditions: Homo sapiens
MDA-MB-435 = assay: NCI cytotoxicity screen; format: cell-based, human; conditions: Homo sapiens
HCT-116 = assay: NCI cytotoxicity screen; format: cell-based, human; conditions: Homo sapiens
SK-MEL-28 = assay: NCI cytotoxicity screen; format: cell-based, human; conditions: Homo sapiens
A498 = assay: NCI cytotoxicity screen; format: cell-based, human; conditions: Homo sapiens, A498
DU-145 = assay: NCI cytotoxicity screen; format: cell-based, human; conditions: Homo sapiens
MOLT-4 = assay: NCI cytotoxicity screen; format: cell-based, human; conditions: Homo sapiens
CCRF-CEM = assay: NCI cytotoxicity screen; format: cell-based, human; conditions: Homo sapiens
SNB-19 = assay: NCI cytotoxicity screen; format: cell-based, human; conditions: Homo sapiens
MALME-3M = assay: NCI cytotoxicity screen; format: cell-based, human; conditions: Homo sapiens, Malme-3M
[1] = tested on: Colon cancer subpanel tumor cell lines; assay: NCI cytotoxicity screen, subpanel; format: cell-based, human; conditions: for GI50 / TGI: subpanel value, Colon cancer
HL-60(TB) = assay: cells; conditions: Homo sapiens
SK-MEL-2 = assay: NCI cytotoxicity screen; format: cell-based, human; conditions: Homo sapiens
HOP-92 = assay: NCI cytotoxicity screen; format: cell-based, human; conditions: Homo sapiens
IGROV1 = assay: NCI cytotoxicity screen; format: cell-based, human; conditions: Homo sapiens, IGROV-1
LOX IMVI = assay: NCI cytotoxicity screen; format: cell-based, human; conditions: Homo sapiens
SW-620 = assay: NCI cytotoxicity screen; format: cell-based, human; conditions: Homo sapiens
M14 = assay: NCI cytotoxicity screen; format: cell-based, human; conditions: Homo sapiens
NCI-H522 = assay: NCI cytotoxicity screen; format: cell-based, human; conditions: Homo sapiens
[2] = tested on: Renal cancer subpanel tumor cell lines; assay: NCI cytotoxicity screen, subpanel; format: cell-based, human
SK-OV-3 = assay: NCI cytotoxicity screen; format: cell-based, human; conditions: Homo sapiens

| Compound | GI50 (HS 578T) [µM] | GI50 (MCF7) [µM] | GI50 (KM12) [µM] | GI50 (MDA-MB-468) [µM] | GI50 (SF-268) [µM] | GI50 (TK-10) [µM] | GI50 (NCI-H226) [µM] | GI50 (MDA-MB-435) [µM] | GI50 (HCT-116) [µM] | GI50 (SK-MEL-28) [µM] | GI50 (A498) [µM] | GI50 (DU-145) [µM] | GI50 (MOLT-4) [µM] | GI50 (CCRF-CEM) [µM] | GI50 (SNB-19) [µM] | GI50 (MALME-3M) [µM] | GI50 ([1]; Homo sapiens) [µM] | GI50 [1] [µM] | TGI [1] | GI50 (HL-60(TB)) [µM] | other results |
| --- | --- | --- | --- | --- | --- | --- | --- | --- | --- | --- | --- | --- | --- | --- | --- | --- | --- | --- | --- | --- | --- |
| COc1cc2ncnc(Nc3ccc(F)c(Cl)c3)c2cc1OCCCN1CCOCC1 [Gefitinib, reference compound] | 10 | 10 | 7.94 | 0.01 | 7.94 | 0.1 | 15.8 | 3.16 | 7.94 | 0.31 | 0.4 | 2.51 | 3.98 | 5.01 | 12.6 | 3.16 | 5.2 | 5.23 | 18.47 µM | 5.01 | GI50 (SK-MEL-2): 12.6 µM; GI50 (HOP-92): 7.94 µM; GI50 (IGROV1): 0.2 µM; GI50 (LOX IMVI): 7.94 µM; GI50 (SW-620): 7.94 µM; GI50 (M14): 5.01 µM |
| C#Cc1cccc(Nc2ncnc3cc(OCCOC)c(OCCOC)cc23)c1 [Erlotinib, reference compound] | 6.3 | 100 | 63.1 | 0.2 | 19.9 | 0.1 | 6.3 | 15.8 | 5.01 | 31.6 | 1.58 | 1.58 | 5.01 | 15.8 | 3.98 | 5.01 | 51.7 | 51.7 | c (Compounds showed values > 100 μM) | 5.01 | GI50 (NCI-H522): 1 µM; CC50 ([1]; Homo sapiens, read-out: LC50): > 100 µM; GI50 (SK-MEL-2): 12.6 µM; CC50 ([2]; Homo sapiens, read-out: LC50): 89.2 µM; GI50 ([2]; Homo sapiens, subpanel value, Renal cancer): 2.5 µM; GI50 ([2]; subpanel value, Renal cancer): 2.46 µM; TGI ([2]; subpanel value, Renal cancer): 42.59 µM; GI50 (HOP-92): 6.3 µM; GI50 (IGROV1): 0.25 µM; GI50 (SK-OV-3): 0.39 µM; GI50 (LOX IMVI): 5.01 µM; GI50 (SW-620): 5.01 µM; GI50 (M14): 6.3 µM |
